{"source": "paper PMC8881077", "about": "(Journal of Enzyme Inhibition and Medicinal Chemistry, 2022)", "key": {"[1]": {"system": "normal human hepatocytes cell line (LO2)", "experiment": "Hepatotoxicity on LO2 cells", "type": "cell-based", "conditions": "2.5 μM to 80.0 μM", "procedure": "(§1) The anti-AD drug tacrine has been forced to withdraw due to severe hepatotoxicity. Thus, the hepatotoxicity of compounds 5f on normal human hepatocytes cell line (LO2) was evaluated using MTT assay. […] Furthermore, the hepatoprotective activity of compound 5f on H2O2-induced live injury was tested using an MTT assay. […]\n• Materials. LO2 cells purchased from Wuhan Punosi Life Technology Co., Ltd. 30% H2O2, Trichloroacetic acid (TCA), SRB, DMEM medium (HyClone), Foetal bovine serum (LNSER, article number: S711-001S), Penicillin streptomycin mixture (double antibiotic) (Solarbio), 0.25% trypsin-EDTA digestive juice (Solarbio), DMSO (Solarbio), Potassium dihydrogen phosphate (Xiyu Science Co., Ltd., CAS: 7778-77-0); Ultra-clean workbench (Wuxi Easy Purification Equipment Co., Ltd., model: SW-CJ-VS2); Carbon dioxide incubator (Esco, model: 2014-88759); […]; • Experiment method. (a) Cell culture: cultured in DMEM medium containing 10% FBS and 1% double-antibody, placed in 37 °C, 5% CO2 constant temperature and humidity incubator, changed every 2 days, subcultured when cells were 90% confluent. […] The OD value was measured at 515 nm using a microplate reader. […] After treatment with H2O2 for 6h, the survival rate was measured by the SRB method."}, "[2]": {"system": "normal human hepatocytes cell line (LO2)", "experiment": "Hepatoprotective activity on H2O2-induced LO2 cell injury", "type": "cell-based", "conditions": "LO2 cells, 1000 μM H2O2", "procedure": "as §1\n• Materials. LO2 cells purchased from Wuhan Punosi Life Technology Co., Ltd. 30% H2O2, Trichloroacetic acid (TCA), SRB, DMEM medium (HyClone), Foetal bovine serum (LNSER, article number: S711-001S), Penicillin streptomycin mixture (double antibiotic) (Solarbio), 0.25% trypsin-EDTA digestive juice (Solarbio), DMSO (Solarbio), Potassium dihydrogen phosphate (Xiyu Science Co., Ltd., CAS: 7778-77-0); Ultra-clean workbench (Wuxi Easy Purification Equipment Co., Ltd., model: SW-CJ-VS2); Carbon dioxide incubator (Esco, model: 2014-88759); […]; • Experiment method. (a) Cell culture: cultured in DMEM medium containing 10% FBS and 1% double-antibody, placed in 37 °C, 5% CO2 constant temperature and humidity incubator, changed every 2 days, subcultured when cells were 90% confluent. (b) Effect of compounds on LO2 proliferation by SRB assay: Discard the culture medium, fix the cells with 10% (m/v) trichloroacetic acid (TCA) 100 μL, and place in a refrigerator at 4 °C for 1 h. The fixing solution was discarded, washed 5 times with distilled water, and dried in an oven. Adding 100 μL SRB solution to each well after drying, and leave it at room temperature for 10-30 min. Discard the supernatant, wash it 5 times with 1% glacial acetic acid water, air dry. Finally, add 100 μL/well of 10 mmol/L Tris-based buffer solution and oscillate on a plate shaker. The OD value was measured at 515 nm using a microplate reader. Cell viability (%) = OD test well/OD blank control well x 100%. (c) Effect of compounds on H2O2-induced LO2 cell injury by SRB assay. […] After treatment with H2O2 for 6h, the survival rate was measured by the SRB method."}, "in vitro": {"experiment": "in vitro", "conditions": "PAMPA"}}}
{"smiles": "CCN(CCCCCOc1cc(O)c2c(c1)OC(c1ccc(O)cc1)CC2=O)Cc1ccccc1", "note": "(centres unmarked) [Compound 5f, 7-((5-(benzyl(ethyl)amino)pentyl)oxy)-5-hydroxy-2–(4-hydroxyphenyl)chroman-4-one]", "values": [{"measurement": "LO2 cell viability (hepatotoxicity)", "setting": "[1]", "result": "did not show an obvious change until the concentration increased to 40.0 μM"}, {"measurement": "viability at 5 µM", "setting": "[2]; L02, 5.0 μM", "result": 65.2, "unit": "%"}, {"measurement": "viability at 10 µM", "setting": "[2]; L02, 10.0 μM", "result": 69.7, "unit": "%"}, {"measurement": "viability at 20 µM", "setting": "[2]; L02, 20.0 μM", "result": 79.4, "unit": "%"}, {"measurement": "Papp at 100 μg/mL", "setting": "in vitro", "result": "6.9 ± 0.36", "unit": "×10⁻⁶ cm/s"}]}
